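Exposure lasted 48 hours, with cells grown in 96-well plates and compounds tested at five concentrations. Here, GI50 denotes the concentration required for 50% inhibition of growth. TGI marks complete inhibition of growth.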
How the values were obtained:
Test in all cases: NCI-60 cell line screen, 48 h
[1] = test system: SK-MEL-5 melanoma
[2] = test system: M14 melanoma
[3] = test system: UACC-62 melanoma
[4] = test system: T-47D breast
[5] = test system: SN12C renal
[6] = test system: HOP-62 NSCLC
[7] = test system: OVCAR-8 ovarian
[8] = test system: KM12 colon
[9] = test system: PC-3 prostate
[10] = test system: HCT-116 colon
[11] = test system: RXF 393 renal
[12] = test system: LOX IMVI melanoma
[13] = test system: CAKI-1 renal
[14] = test system: SNB-19 CNS
[15] = test system: IGROV1 ovarian
[16] = test system: UO-31 renal
[17] = test system: NCI-H460 lung
[18] = test system: SK-OV-3 ovarian
[19] = test system: NCI-H23 lung
[20] = test system: SF-268 CNS
[21] = test system: EKVX NSCLC
[22] = test system: COLO 205 colon
[23] = test system: BT-549 breast
[24] = test system: UACC-257 melanoma
[25] = test system: MDA-MB-435
[26] = test system: K-562 leukemia
[27] = test system: SF-295 CNS
[28] = test system: OVCAR-5 ovarian
[29] = test system: MDA-MB-231 breast
[30] = test system: MOLT-4 leukemia
[31] = test system: HCC-2998 colon
[32] = test system: NCI-H522 lung
[33] = test system: SK-MEL-28 melanoma
[34] = test system: HL-60(TB) leukemia
[35] = test system: NCI/ADR-RES ovarian
[36] = test system: DU-145 prostate
[37] = test system: SK-MEL-2 melanoma
[38] = test system: TK-10 renal
[39] = test system: MALME-3M melanoma
[40] = test system: U251 CNS
[41] = test system: SW-620 colon
[42] = test system: SNB-75 CNS
[43] = test system: NCI-H226 lung
[44] = test system: A498 renal
[45] = test system: OVCAR-4 ovarian
[46] = test system: ACHN renal
[47] = test system: MCF7 breast
[48] = test system: HS 578T breast
[49] = test system: HT29 colon
[50] = test system: SF-539 CNS
[51] = test system: 786-0 renal
[52] = test system: A549 NSCLC
[53] = test system: OVCAR-3 ovarian
[54] = test system: HCT-15 colon

Question: `CCN(CC)Cc1cc(Nc2c3ccc(Cl)cc3nc3c(C)cccc23)ccc1O` was tested. Which GI50 [1] did it give?
Answer: 1760 nM

Question: And the TGI [1]?
Answer: 3.15 µM

Question: And the GI50 [2]?
Answer: 1690 nM

Question: What about the TGI [2] of the same compound?
Answer: 3.11 µM

Question: And the GI50 [3]?
Answer: 1960 nM

Question: And the TGI [3]?
Answer: 3.64 µM

Question: And the GI50 [4]?
Answer: 2090 nM

Question: And the TGI [4]?
Answer: 4.08 µM

Question: And the GI50 [5]?
Answer: 1360 nM

Question: And the TGI [5]?
Answer: 2920 nM

Question: And the GI50 [6]?
Answer: 1650 nM

Question: And the TGI [6]?
Answer: 3.26 µM

Question: And the GI50 [7]?
Answer: 1340 nM

Question: And the TGI [7]?
Answer: 3.45 µM

Question: And the GI50 [8]?
Answer: 1590 nM

Question: What about the TGI [8] of the same compound?
Answer: 3.46 µM

Question: And the GI50 [9]?
Answer: 1550 nM

Question: And the TGI [9]?
Answer: 3.1 µM

Question: What about the GI50 [10] of the same compound?
Answer: 982 nM

Question: And the TGI [10]?
Answer: 2210 nM

Question: And the GI50 [11]?
Answer: 1300 nM

Question: What about the TGI [11] of the same compound?
Answer: 2630 nM

Question: And the GI50 [12]?
Answer: 1290 nM

Question: And the TGI [12]?
Answer: 2610 nM

Question: What about the GI50 [13] of the same compound?
Answer: 1530 nM

Question: And the TGI [13]?
Answer: 2920 nM

Question: What about the GI50 [14] of the same compound?
Answer: 1450 nM

Question: What about the TGI [14] of the same compound?
Answer: 3.29 µM

Question: And the GI50 [15]?
Answer: 560 nM

Question: What about the TGI [15] of the same compound?
Answer: 1780 nM

Question: What about the GI50 [16] of the same compound?
Answer: 1060 nM

Question: What about the TGI [16] of the same compound?
Answer: 2270 nM

Question: What about the GI50 [17] of the same compound?
Answer: 1160 nM

Question: And the TGI [17]?
Answer: 2700 nM

Question: And the GI50 [18]?
Answer: 1780 nM

Question: And the TGI [18]?
Answer: 3.33 µM

Question: What about the GI50 [19] of the same compound?
Answer: 1650 nM

Question: And the TGI [19]?
Answer: 3.22 µM

Question: And the GI50 [20]?
Answer: 1530 nM

Question: And the TGI [20]?
Answer: 3.09 µM

Question: What about the GI50 [21] of the same compound?
Answer: 1860 nM

Question: And the TGI [21]?
Answer: 3.98 µM

Question: And the GI50 [22]?
Answer: 1230 nM

Question: What about the TGI [22] of the same compound?
Answer: 2600 nM

Question: What about the GI50 [23] of the same compound?
Answer: 1920 nM

Question: What about the TGI [23] of the same compound?
Answer: 3.51 µM

Question: What about the GI50 [24] of the same compound?
Answer: 1990 nM

Question: And the TGI [24]?
Answer: 3.62 µM

Question: And the GI50 [25]?
Answer: 1750 nM

Question: What about the TGI [25] of the same compound?
Answer: 3.14 µM

Question: What about the GI50 [26] of the same compound?
Answer: 1160 nM

Question: What about the TGI [26] of the same compound?
Answer: 5.48 µM

Question: And the GI50 [27]?
Answer: 1780 nM

Question: And the TGI [27]?
Answer: 3.34 µM

Question: And the GI50 [28]?
Answer: 2100 nM

Question: What about the TGI [28] of the same compound?
Answer: 4.86 µM

Question: And the GI50 [29]?
Answer: 1830 nM

Question: What about the TGI [29] of the same compound?
Answer: 3.81 µM

Question: What about the GI50 [30] of the same compound?
Answer: 855 nM

Question: What about the TGI [30] of the same compound?
Answer: 10.9 µM

Question: And the GI50 [31]?
Answer: 1200 nM

Question: What about the TGI [31] of the same compound?
Answer: 2470 nM

Question: What about the GI50 [32] of the same compound?
Answer: 585 nM

Question: And the TGI [32]?
Answer: 1920 nM

Question: And the GI50 [33]?
Answer: 1780 nM

Question: And the TGI [33]?
Answer: 3.22 µM

Question: What about the GI50 [34] of the same compound?
Answer: 2420 nM

Question: What about the TGI [34] of the same compound?
Answer: 5.24 µM

Question: What about the GI50 [35] of the same compound?
Answer: 1080 nM

Question: What about the TGI [35] of the same compound?
Answer: 3.02 µM

Question: What about the GI50 [36] of the same compound?
Answer: 2300 nM

Question: What about the TGI [36] of the same compound?
Answer: 6.99 µM

Question: And the GI50 [37]?
Answer: 1940 nM

Question: And the TGI [37]?
Answer: 3.73 µM

Question: What about the GI50 [38] of the same compound?
Answer: 2690 nM

Question: What about the TGI [38] of the same compound?
Answer: 5.59 µM

Question: What about the GI50 [39] of the same compound?
Answer: 1650 nM

Question: What about the TGI [39] of the same compound?
Answer: 3.13 µM

Question: And the GI50 [40]?
Answer: 1460 nM

Question: And the TGI [40]?
Answer: 2840 nM

Question: And the GI50 [41]?
Answer: 1060 nM

Question: And the TGI [41]?
Answer: 2530 nM

Question: And the GI50 [42]?
Answer: 1500 nM

Question: What about the TGI [42] of the same compound?
Answer: 2840 nM

Question: And the GI50 [43]?
Answer: 1710 nM

Question: What about the TGI [43] of the same compound?
Answer: 3.51 µM

Question: What about the GI50 [44] of the same compound?
Answer: 1050 nM

Question: What about the TGI [44] of the same compound?
Answer: 3 µM

Question: What about the GI50 [45] of the same compound?
Answer: 1530 nM

Question: What about the TGI [45] of the same compound?
Answer: 2970 nM

Question: And the GI50 [46]?
Answer: 1040 nM

Question: What about the TGI [46] of the same compound?
Answer: 2240 nM

Question: What about the GI50 [47] of the same compound?
Answer: 1000 nM

Question: What about the TGI [47] of the same compound?
Answer: 2320 nM

Question: And the GI50 [48]?
Answer: 1920 nM

Question: What about the TGI [48] of the same compound?
Answer: 4.57 µM

Question: And the GI50 [49]?
Answer: 888 nM

Question: What about the TGI [49] of the same compound?
Answer: 2420 nM

Question: And the GI50 [50]?
Answer: 1730 nM

Question: And the TGI [50]?
Answer: 3.12 µM

Question: What about the GI50 [51] of the same compound?
Answer: 1370 nM

Question: And the TGI [51]?
Answer: 2670 nM

Question: And the GI50 [52]?
Answer: 1640 nM

Question: What about the TGI [52] of the same compound?
Answer: 4.64 µM

Question: And the GI50 [53]?
Answer: 1970 nM

Question: And the TGI [53]?
Answer: 3.73 µM

Question: And the GI50 [54]?
Answer: 1150 nM

Question: What about the TGI [54] of the same compound?
Answer: 2870 nM
